Assay results from publication PMC11109052, “Metabolism characterization and toxicity of N-hydap, a marine candidate drug for lung cancer therapy by LC–MS method” (Natural Products and Bioprospecting, 2024).

Key:
[1] = Metabolic stability in HLMs, UGT reaction (glucuronidation); type: in vitro ADME, human; conditions: human, human liver microsomes (UGT reaction), pH 7.4, HLMs, UGT reaction
Experimental: (§1) Various microsomes including HLMs, HKMs, HIMs, RLMs, RKMs, MLMs and MKMs were involved in CYP and UGT reactions of N-hydap. A typical CYP incubation mixture included 0.5 mg/mL microsomes protein, 3.3 mM glucose-6-phosphate, 3.3 mM MgCl2, 0.4 U/mL glucose-6-phosphate dehydrogenase, and N-hydap (1, 2.5, or 10 μM) in the 50 mM potassium phosphate buffer (KPI, pH 7.4). The incubation mixture was preincubated at 37 °C for 5 min, and the reaction was started by adding NADP to form a NADPH-regenerating system. Simultaneously, the classic UGT reaction system consisted of 50 mM KPI, 5 mM MgCl2, 0.5 mg/mL microsomes, 0.125 mg/mL alamethicin, and 5.25 mg/mL saccharolactone. The reaction was initiated after supplying UDPGA. The CYP and UGT mixtures were incubated at 37 °C in a shaking water bath (80 rpm) for 1.5 h to enhance metabolite formation. To terminate the reaction, an ice-cold solution of Tes (50 ng/mL, dissolved in methanol and used as an internal standard) was added to half of the mixture volume. The mixture was vortexed for 30 s and then centrifuged at 13,000 rpm for 15 min to eliminate any precipitated protein. The resulting supernatant was transferred to autosampler vials, and 5 μL was injected into the LC–MS system. All reactions were conducted in triplicate.
(§2) The identical concentration of HLMs was utilized for both the CYP reaction and UGT reaction. At predetermined time intervals of 0, 15, 30, and 60 min, 100 µL samples were taken from the reaction volumes. To halt the reaction, 50 µL of 50 ng/mL Tes was added. Samples were analyzed using LC–MS to compare the remaining level of N-hydap between the CYP reaction and UGT reaction. T1/2 and CLint (in vivo) (mL/min/kg) were calculated as reported previously:
(§3) T1/2=0.693/k, where k represents the slope of the line derived from plotting the natural logarithm of the percentage (Ln %) of N-hydap remaining in the reaction mixture against the incubation time (minutes).
(§4) CLintinvivo=0.693/invitroT1/2×mLincubation/mgmicrosomes×45mgmicrosomes/gliver×20gliver/kgbodyweight.

HLMs (UGT reaction) = assay: as above; type: in vitro ADME, human; conditions: for percentage of N-hydap remaining: HLMs, glucuronidation reaction
Experimental: as §1, §2, §3, §4

CYP3A4 = assay: Western blot protein level after 7 days gavage: CYP3A4; type: in vivo; conditions: mice, p.o. 7 days; liver and kidney (either tissue)
Experimental: (§5) Mice were randomly divided into four groups, with eight animals in each group. The mice received oral pretreatment with N-hydap for 7 days at doses of 2, 5, and 10 mg/kg/day, which were considered as the low dose, medium dose, and high dose, respectively. Correspondingly, the control group received PBS. On the 8th day, the liver and kidneys were removed, and organs from eight mice per group were combined to prepare MLMs and MKMs using the detailed procedures above. Subsequently, we determined the activity of CYP and UGT enzymes by specific substrate metabolized with MLMs (0.5 mg/mL) and MKMs (0.2 mg/mL) in vitro. […] In the ex vivo experiments, the activity of enzymes was measured by quantifying the production of various metabolites (nM/mg protein/min). […] The measurements were performed using multiple reaction monitoring (MRM) transitions, which are specific mass spectrometry transitions used for quantification. […]
(§6) After 7 days of N-hydap gavage, the liver and kidney tissues were lysed using RIPA buffer supplemented with a 1% protease inhibitor cocktail. […] Western blot signals were detected using an ECL chemiluminescence detection agent. The relative intensity of each protein band was scanned and quantified using Image J software.

[2] = Stability in tissue homogenate; type: in vitro ADME
Experimental: The stability of the KPI solution was examined after storage at 4 °C for 24 h and incubation at 37 °C for 4 h, which was conducted using the QC samples at three concentrations (five samples for each concentration). Stability in plasma and tissue homogenate was assessed by testing samples stored at both 4 °C and room temperature for 24 h.

CYP2C19 = assay: DME activity ex vivo in MLMs and MKMs: CYP2C19 (4-OH-MP from MP); parameters: species or system mice; key to CYP2C19 Enzymatic activity: ↑: up-regulation; ↓: down-regulation; –: no change
Experimental: (§7) Mice were randomly divided into four groups, with eight animals in each group. The mice received oral pretreatment with N-hydap for 7 days at doses of 2, 5, and 10 mg/kg/day, which were considered as the low dose, medium dose, and high dose, respectively. Correspondingly, the control group received PBS. On the 8th day, the liver and kidneys were removed, and organs from eight mice per group were combined to prepare MLMs and MKMs using the detailed procedures above. Subsequently, we determined the activity of CYP and UGT enzymes by specific substrate metabolized with MLMs (0.5 mg/mL) and MKMs (0.2 mg/mL) in vitro. Specifically, the following selective substrates were used for the respective enzymes: PH (1 μM) for CYP1A2, DIC (1 μM) for CYP2C9, MP (90 μM) for CYP2C19, DM (1 μM) for CYP2D6, CZX (10 μM) for CYP2E1, Tes (1 μM) for CYP3A4, SN38 (1 μM) for UGT1A1, CACD (100 μM) for UGT1A3, Sero (20 μM) for UGT1A6, and Prop (1 μM) for UGT1A9. All substrates were dissolved in methanol or DMSO. The incubation procedure was carried out as mentioned above, and the reaction was terminated with VER (20 ng/mL) in ESI+ mode and CLP (200 ng/mL) in ESI− mode. In the ex vivo experiments, the activity of enzymes was measured by quantifying the production of various metabolites (nM/mg protein/min). The metabolites and their corresponding enzymes are as follows: APAP from PH, 4-OH-DIC from DIC, 4-OH-MP from MP, DXO from DM, 6-OH-CZX from CZX, 6-OH-Tes from Tes, SN38-G from SN38, CACD-G from CACD, Sero-G from Sero, Prop-G from Prop. The measurements were performed using multiple reaction monitoring (MRM) transitions, which are specific mass spectrometry transitions used for quantification. The optimized parameters for each metabolite, such as declustering potential and collision energy, were described in Supplementary Table 1. All experiments were conducted in triplicate, to ensure accuracy and reproducibility.

Ugt1a1 [3] = assay: Western blot protein level after 7 days gavage: UGT1A1; type: in vivo; conditions: mice, p.o. 7 days; liver
Experimental: as §5, §6

Ugt1a1 [4] = assay: DME activity ex vivo in MLMs and MKMs: UGT1A1 (SN38-G from SN38); parameters: species or system mice; key to UGT1A1 Enzymatic activity: ↑: up-regulation; ↓: down-regulation; –: no change
Experimental: as §7

CC1CCC2C(C=CC(C)C2C(=O)c2c(O)c(C3(O)CCC(O)C4OC43)cn(O)c2=O)C1 (stereo not drawn) [N-hydap, N-Hydroxyapiosporamide]
half-life [1]: 2.16 h | CLint scaled ([1]; extrapolated from in vitro T1/2, read-out: CLint (in vivo)): 48.2 mL/min/kg | percentage of N-hydap remaining (HLMs (UGT reaction); 15 min): 47.84% | percentage of N-hydap remaining (HLMs (UGT reaction); 30 min): 40.44% | UGT catelyzed, experimental results (HLMs (UGT reaction); Table 4 experimental column): Yes | Phase II metabolism, experimental results (HLMs (UGT reaction); Table 4 experimental column, microsomes): Glucuronidation | eliminated by UGTs (HLMs (UGT reaction); various microsomes, after 1 h): ~70% | protein levels of CYP3A4 (CYP3A4): no significant changes | stability, Accuracy (Bias, %) ([2]; 60 nM, 4℃ for 24h): 102.62% | stability, Accuracy (Bias, %) ([2]; 60 nM, room temperature for 24h): 103.17% | stability, Accuracy (Bias, %) ([2]; 150 nM, 4℃ for 24h): 103.40% | stability, Accuracy (Bias, %) ([2]; 150 nM, room temperature for 24h): 99.13% | stability, Accuracy (Bias, %) ([2]; 500 nM, 4℃ for 24h): 105.16% | stability, Accuracy (Bias, %) ([2]; 500 nM, room temperature for 24h): 93.38% | CYP2C19 Enzymatic activity (CYP2C19; Kidney): – | CYP2C19 Enzymatic activity (CYP2C19; Liver): ↓ | reduction of formation rate of 4-OH-MP vs control (CYP2C19; liver microsomes of mice pretreated 7 days p.o.): 33% | protein levels of UGT1A1 (Ugt1a1 [3]): slightly down-regulated | UGT1A1 Enzymatic activity (Ugt1a1 [4]; Kidney): – | UGT1A1 Enzymatic activity (Ugt1a1 [4]; Liver): ↑ | elevation of formation rate of SN38-G (Ugt1a1 [4]; MLMs, range stated jointly for APAP, SN38-G, 6-OH-Tes and CDCA-G): 12%-331%
